Experiments:
[1] = test system: DENV-3 strain H87; assay: Tetravalent RT-qPCR assay Protocol A, serotype 3; format: cell-based; conditions: Dengue virus, DENV3, 72 h; RT-qPCR serotype 3 H87, Vero cells, day 3
Method: (§1) The antiviral activity of the compounds of the invention was tested against DENV-1 strain TC974#666 (NCPV; Table 6), DENV-2 strain 16681 (Table 7), DENV-3 strain H87 (NCPV; Table 8) and DENV-4 strains H241 (NCPV; Table 9) in a RT-qPCR assay. Therefore, Vero cells were infected with either DENV-1, or -2, or -3, or -4 in the presence or absence of test compounds. At day 3 post-infection, the cells were lysed and cell lysates were used to prepare cDNA of both a viral target (the 3′UTR of DENV; table 2) and a cellular reference gene (β-actin, table 2). Subsequently, a duplex real time PCR was performed on a Lightcycler480 instrument. The generated Cp value is inversely proportional to the amount of RNA expression of these targets. Inhibition of DENV replication by a test compound result in a shift of Cp's for the 3′UTR gene. On the other hand, if a test compound is toxic to the cells, a similar effect on β-actin expression will be observed. The comparative ΔΔCp method is used to calculate EC50, which is based on the relative gene expression of the target gene (3′UTR) normalized with the cellular housekeeping gene (β-actin).
(§2) The culture medium consisted of minimal essential medium supplemented with 2% of heat-inactivated fetal calf serum, 0.04% gentamycin (50 mg/mL) and 2 mM of L-glutamine. Vero cells, obtained from ECACC, were suspended in culture medium and 75 μL/well was added in 96-well plates (10000 cells/well), which already contain the antiviral compounds. Typically, these plates contain a 4-fold serial dilution of 9 dilution steps of the test compound at 200 times the final concentration in 100% DMSO (500 nL; final concentration range: 25 μM-0.00038 μM). In addition, each plate contains wells which are assigned as virus controls (containing cells and virus in the absence of compound) and cell controls (containing cells in the absence of virus and compound). Once the cells were added in the plates, the plates were incubated in a fully humidified incubator (37° C., 5% CO2) until the next day. Then, DENV-1 strain TC974#666 at an MOI of 0.6, DENV-2 strain 16681 at an MOI of 0.01, DENV-3 strain H87 at an MOI of 1.0 and DENV-4 strains H241 at an MOI of 0.2 and SG/06K2270DK1/2005 at an MOI of 0.16, were added. Therefore, 25 μL of virus suspension was added to all the wells containing test compound and to the wells assigned as virus control. In parallel, 25 μL of culture medium was added to the cell controls. Next, the plates were incubated for 3 days in a fully humidified incubator (37° C., 5% CO2). After 3 days, the supernatant was removed from the wells and the cells were washed twice with ice-cold PBS (˜100 μL). The cell pellets within the 96-well plates were stored at −80° C. for at least 1 day. Next, RNA was extracted using the Cells-to-CT™ lysis kit, according to the manufacture's guideline (Applied Biosystems). The cell lysates can be stored at −80° C. or immediately used in the reverse transcription step.
(§3) In preparation of the reverse transcription step, mix A (table 3A) was prepared and 7.57 μL/well was dispensed in a 96-well plate. After addition of 5 μL of the cell lysates, a five minute denaturation step at 75° C. was performed (table 3B). Afterwards, 7.43 μL of mix B was added (table 3C) and the reverse transcription step was initiated (table 3D) to generate cDNA.
(§4) Finally, a RT-qPCR mix was prepared, mix C (table 4A), dispensed in 96-well LightCycler qPCR plates to which 3 μL of cDNA was added and the qPCR was performed according to the conditions in table 4B on a LightCycler 480. Using the LightCycler software and an in-house LIMS system, dose response curves for each compound were calculated and the half maximal effective concentration (EC50) and the half maximal cytotoxic concentration (CC50) were determined.

[2] = test system: DENV-1 strain TC974#666; assay: Tetravalent RT-qPCR assay Protocol A, serotype 1; format: cell-based; conditions: Dengue virus, DENV1, 72 h; RT-qPCR serotype 1 TC974#666, Vero cells, day 3
Method: as §1, §2, §3, §4

[3] = test system: DENV-4 strains H241; assay: Tetravalent RT-qPCR assay Protocol A, serotype 4; format: cell-based; conditions: Dengue virus, DENV4, 72 h; RT-qPCR serotype 4 H241, Vero cells, day 3
Method: as §1, §2, §3, §4

[4] = in vitro; format: cell-based; conditions: African green monkey, CC50
Outline: (§5)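 On the same plates after eGFP read-out, resazurin was added and cells incubated a further 5 h at 37 °C, 5% CO2; resorufin fluorescence read with 530 nm excitation. CC50 is the concentration halving resazurin conversion versus cell control; SI = CC50/EC50.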

[5] = test system: DENV-2 strain 16681; assay: Tetravalent RT-qPCR assay Protocol A, serotype 2; format: cell-based; conditions: Dengue virus, DENV2, 72 h; RT-qPCR serotype 2 16681, Vero cells, day 3
Method: as §1, §2, §3, §4

[6] = test system: DENV-2 16681 strain; assay: DENV-2 antiviral assay (eGFP-labeled virus in Vero cells); format: cell-based, Dengue virus; conditions: DENV-2 16681 eGFP, MOI 0.5, 3 days
Outline: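 Vero cells were pre-plated with compound overnight, then infected with eGFP-labeled DENV-2 16681 at MOI 0.5 and incubated 3 days at 37 °C. eGFP fluorescence read by automated microscopy; 9-point 4-fold dilutions (25 μM–0.00038 μM final) in quadruplicate, EC50 by linear interpolation versus virus and cell controls.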

[7] = in vitro; format: cell-based; conditions: African green monkey, CC50; remark: listed apart in the source
Method: as §1, §2, §4

[8] = test system: Vero cells; assay: in vitro; format: cell-based; conditions: African green monkey
Outline: as §5

[9] = test system: Vero cells; assay: in vitro; format: cell-based; conditions: African green monkey, 3 days
Method: as §1, §2, §4

SMILES | EC50 [1] | EC50 [2] | EC50 [3] | CC50 [4] | EC50 [5] | EC50 ([6]; listed as 2A*) | CC50 at 3 days [7] | CC50 [8] | EC50 ([6]; listed as 11A*) | EC50 ([6]; listed as 13B*) | CC50 [9]
COc1cc(NC(C(=O)c2c[nH]c3c(C)c(F)ccc23)c2ccc(F)cc2OC)cc(S(C)(=O)=O)c1 (single isomer, unassigned) [Enantiomer 2A, 2-(4-fluoro-2-methoxyphenyl)-1-(6-fluoro-7-methyl-1H-indol-3-yl)-2-((3-methoxy-5-(methylsulfonyl)phenyl)amino)ethanone] | 58.4 nM | 5.85 nM | 122 nM | 6100 nM | 0.856 nM | 0.77 nM | 2920 nM | – | – | – | –
COc1cc(NC(C(=O)c2c[nH]c3cc(OC)c(F)cc23)c2ccc(F)cc2OC)cc(S(C)(=O)=O)c1 (single isomer, unassigned) [Enantiomer 11A, 2-(4-fluoro-2-methoxyphenyl)-1-(5-fluoro-6-methoxy-1H-indol-3-yl)-2-((3-methoxy-5-(methylsulfonyl)phenyl)amino)ethanone] | 93 nM | 10.9 nM | 226 nM | – | 1.09 nM | – | 4380 nM | 6600 nM | 1.1 nM | – | –
COc1cc(NC(C(=O)c2c[nH]c3c(F)c(F)ccc23)c2ccc(F)cc2OC)cc(S(C)(=O)=O)c1 (single isomer, unassigned) [Enantiomer 13B, 1-(6,7-difluoro-1H-indol-3-yl)-2-(4-fluoro-2-methoxyphenyl)-2-((3-methoxy-5-(methylsulfonyl)phenyl)amino)ethanone] | – | – | 230 nM | – | 0.675 nM | – | 3710 nM | 6700 nM | – | 1.1 nM | 2600 nM
